# Data published in patent US20230074252A1, “DOSAGES AND METHODS FOR TREATING PULMONARY ARTERIAL HYPERTENSION WITH RODATRISTAT” (Altavant Sciences GmbH, priority 2020, published 2023).
# How the values were obtained:
# MRP2 = MRP2 (Homo sapiens, UniProt Q92887); assay: Transporter inhibition, in vitro; assay type: in vitro ADME; settings: for Potential for interaction? (transporter inhibitor), MRP2: predicted @ 600 mg BID
# CYP2C19 [1] = target: T1, CYP2C19 (Homo sapiens, UniProt P33261); assay: In vitro CYP substrate assessment (victim potential); assay type: in vitro ADME
# T1 sequence (P33261 whole entry): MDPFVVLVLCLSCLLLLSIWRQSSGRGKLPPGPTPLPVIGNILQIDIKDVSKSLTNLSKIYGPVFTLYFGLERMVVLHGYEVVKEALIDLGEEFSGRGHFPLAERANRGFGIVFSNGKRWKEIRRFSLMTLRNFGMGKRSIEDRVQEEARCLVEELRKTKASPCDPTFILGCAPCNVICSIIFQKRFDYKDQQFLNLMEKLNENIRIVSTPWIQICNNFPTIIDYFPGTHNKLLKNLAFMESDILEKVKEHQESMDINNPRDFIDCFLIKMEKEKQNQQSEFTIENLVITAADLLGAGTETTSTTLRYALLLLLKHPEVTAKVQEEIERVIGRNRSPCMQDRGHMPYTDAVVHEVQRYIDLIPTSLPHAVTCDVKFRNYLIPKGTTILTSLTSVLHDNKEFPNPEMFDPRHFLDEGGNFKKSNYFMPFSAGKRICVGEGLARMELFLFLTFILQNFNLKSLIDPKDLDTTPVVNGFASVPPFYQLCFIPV
# CYP2B6 [2] = target: T2, CYP2B6 (Homo sapiens, UniProt P20813); assay: as above; assay type: in vitro ADME
# T2 sequence (P20813 1-491): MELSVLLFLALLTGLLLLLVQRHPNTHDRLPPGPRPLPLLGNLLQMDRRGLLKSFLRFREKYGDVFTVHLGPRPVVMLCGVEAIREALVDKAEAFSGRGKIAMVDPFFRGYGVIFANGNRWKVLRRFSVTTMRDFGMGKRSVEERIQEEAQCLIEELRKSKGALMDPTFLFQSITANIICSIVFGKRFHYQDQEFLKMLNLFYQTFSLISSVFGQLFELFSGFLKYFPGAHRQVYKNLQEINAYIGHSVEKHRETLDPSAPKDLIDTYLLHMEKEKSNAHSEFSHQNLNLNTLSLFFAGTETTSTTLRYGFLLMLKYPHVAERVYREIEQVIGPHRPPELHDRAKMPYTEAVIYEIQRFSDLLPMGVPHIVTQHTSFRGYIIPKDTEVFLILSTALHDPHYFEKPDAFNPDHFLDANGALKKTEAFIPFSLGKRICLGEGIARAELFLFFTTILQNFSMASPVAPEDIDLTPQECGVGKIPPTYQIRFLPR
# CYP2D6 = CYP2D6 (Homo sapiens, UniProt P10635); assay: FDA guidance DDI risk assessment, perpetrator potential; set-up: from tissue; host or cells: pooled human liver microsomes (n=200 donors); settings: predicted @ 600 mg BID
# Sequence of CYP2D6 (P10635 whole entry): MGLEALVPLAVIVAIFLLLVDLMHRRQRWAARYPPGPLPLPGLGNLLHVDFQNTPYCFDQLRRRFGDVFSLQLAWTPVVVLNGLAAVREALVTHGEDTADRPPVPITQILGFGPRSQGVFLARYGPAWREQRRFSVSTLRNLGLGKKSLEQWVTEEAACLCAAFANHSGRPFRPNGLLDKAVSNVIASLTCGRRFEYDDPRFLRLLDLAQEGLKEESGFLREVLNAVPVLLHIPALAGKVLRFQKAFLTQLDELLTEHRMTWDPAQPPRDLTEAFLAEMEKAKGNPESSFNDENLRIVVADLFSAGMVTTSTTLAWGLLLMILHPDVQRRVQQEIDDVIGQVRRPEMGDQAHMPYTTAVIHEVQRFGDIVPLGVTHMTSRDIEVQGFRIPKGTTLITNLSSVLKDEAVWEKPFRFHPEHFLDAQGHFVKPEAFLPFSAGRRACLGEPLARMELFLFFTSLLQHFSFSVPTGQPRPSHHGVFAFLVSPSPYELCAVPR
# Procedure: (§1) The potential for rodatristat ethyl or rodatristat to be perpetrators of drug-drug interactions was assessed across in vitro CYP and transporter studies (Tables 1-4). […] This analysis was performed to assess the potential for clinically meaningful DDIs as recommended in FDA Draft Guidance: “In Vitro Metabolism- and Transporter-Mediated Drug-Drug Interaction Studies Guidance for Industry”; October 2017 (FDA, 2017).
# (§2) R1 and R3 values using free (non-protein bound) drug levels were calculated based on plasma protein binding (fraction bound, fb) of rodatristat ethyl (0.995) and rodatristat (0.991). The FDA Guidance is set forth In Vitro Metabolism- and Transporter-Mediated Drug-Drug Interaction Studies Guidance for Industry (2017). […] Parameters for the prediction are set forth below in Tables 5 and 6.
# CYP2C9 = CYP2C9 (Homo sapiens, UniProt P11712); assay: as above; set-up: from tissue; host or cells: pooled human liver microsomes (n=200 donors); settings: predicted @ 600 mg BID
# Sequence of CYP2C9 (P11712 whole entry): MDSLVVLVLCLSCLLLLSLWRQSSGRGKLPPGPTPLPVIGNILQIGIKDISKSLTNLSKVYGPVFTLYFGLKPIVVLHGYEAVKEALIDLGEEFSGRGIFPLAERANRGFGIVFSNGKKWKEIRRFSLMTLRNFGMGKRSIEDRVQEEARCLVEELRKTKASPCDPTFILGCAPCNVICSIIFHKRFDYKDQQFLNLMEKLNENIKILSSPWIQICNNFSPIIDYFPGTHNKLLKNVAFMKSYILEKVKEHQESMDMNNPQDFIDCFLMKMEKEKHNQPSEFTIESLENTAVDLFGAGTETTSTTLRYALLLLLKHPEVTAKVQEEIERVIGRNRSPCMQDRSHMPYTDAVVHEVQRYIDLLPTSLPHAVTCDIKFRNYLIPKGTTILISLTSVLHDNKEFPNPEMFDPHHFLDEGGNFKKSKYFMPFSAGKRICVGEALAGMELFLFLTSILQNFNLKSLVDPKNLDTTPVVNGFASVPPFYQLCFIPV
# Procedure: as §1, §2
# CYP2C8 = target: T3, CYP2C8 (Homo sapiens, UniProt P10632); assay: as above; set-up: from tissue; host or cells: pooled human liver microsomes (n=200 donors); settings: for Potential for interaction (perpetrator), CYP2C8: predicted @ 600 mg BID
# T3 sequence (P10632 1-490): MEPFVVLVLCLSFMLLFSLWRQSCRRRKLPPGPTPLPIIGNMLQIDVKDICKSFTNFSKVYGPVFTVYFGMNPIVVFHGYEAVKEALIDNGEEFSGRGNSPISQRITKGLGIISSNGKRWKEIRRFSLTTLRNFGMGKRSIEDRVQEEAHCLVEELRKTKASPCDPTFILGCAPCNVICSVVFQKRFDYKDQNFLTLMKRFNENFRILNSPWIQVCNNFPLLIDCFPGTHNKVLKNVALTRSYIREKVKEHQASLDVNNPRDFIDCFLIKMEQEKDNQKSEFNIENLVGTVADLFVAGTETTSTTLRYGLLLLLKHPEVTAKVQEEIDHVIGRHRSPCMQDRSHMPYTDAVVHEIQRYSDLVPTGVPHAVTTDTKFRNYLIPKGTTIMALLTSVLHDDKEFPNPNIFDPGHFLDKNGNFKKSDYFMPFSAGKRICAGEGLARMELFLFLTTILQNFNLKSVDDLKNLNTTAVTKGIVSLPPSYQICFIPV
# Procedure: as §1, §2
# CYP2C19 [3] = target: T1, CYP2C19; assay: as above; set-up: from tissue; host or cells: pooled human liver microsomes (n=200 donors); settings: predicted @ 600 mg BID
# Procedure: as §1, §2
# CYP1A2 = target: T4, CYP1A2 (Homo sapiens, UniProt P05177); assay: as above; set-up: from tissue; host or cells: pooled human liver microsomes (n=200 donors); settings: predicted @ 600 mg BID
# T4 sequence (P05177 1-516): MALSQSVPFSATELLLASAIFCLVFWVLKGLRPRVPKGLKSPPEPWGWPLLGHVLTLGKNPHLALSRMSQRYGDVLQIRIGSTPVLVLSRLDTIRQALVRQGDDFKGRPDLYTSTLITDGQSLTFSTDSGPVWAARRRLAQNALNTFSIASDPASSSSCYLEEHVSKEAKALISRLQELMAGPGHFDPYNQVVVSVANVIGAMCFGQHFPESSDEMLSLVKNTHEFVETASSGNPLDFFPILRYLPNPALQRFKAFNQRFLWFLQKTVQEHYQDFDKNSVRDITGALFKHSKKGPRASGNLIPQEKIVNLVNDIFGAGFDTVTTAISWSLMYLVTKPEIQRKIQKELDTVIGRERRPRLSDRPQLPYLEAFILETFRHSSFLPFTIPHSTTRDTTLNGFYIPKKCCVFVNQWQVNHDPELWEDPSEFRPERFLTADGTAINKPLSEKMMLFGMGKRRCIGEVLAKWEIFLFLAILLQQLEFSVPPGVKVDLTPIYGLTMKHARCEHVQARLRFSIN
# Procedure: as §1, §2
# CYP2B6 [4] = target: T2, CYP2B6; assay: as above; set-up: from tissue; host or cells: pooled human liver microsomes (n=200 donors); settings: predicted @ 600 mg BID
# Procedure: as §1, §2
# CYP3A4 = assay: as above; set-up: species or system human; settings: predicted @ 600 mg BID
# Procedure: as §1, §2
# Sequence of MRP2 (Q92887 whole entry): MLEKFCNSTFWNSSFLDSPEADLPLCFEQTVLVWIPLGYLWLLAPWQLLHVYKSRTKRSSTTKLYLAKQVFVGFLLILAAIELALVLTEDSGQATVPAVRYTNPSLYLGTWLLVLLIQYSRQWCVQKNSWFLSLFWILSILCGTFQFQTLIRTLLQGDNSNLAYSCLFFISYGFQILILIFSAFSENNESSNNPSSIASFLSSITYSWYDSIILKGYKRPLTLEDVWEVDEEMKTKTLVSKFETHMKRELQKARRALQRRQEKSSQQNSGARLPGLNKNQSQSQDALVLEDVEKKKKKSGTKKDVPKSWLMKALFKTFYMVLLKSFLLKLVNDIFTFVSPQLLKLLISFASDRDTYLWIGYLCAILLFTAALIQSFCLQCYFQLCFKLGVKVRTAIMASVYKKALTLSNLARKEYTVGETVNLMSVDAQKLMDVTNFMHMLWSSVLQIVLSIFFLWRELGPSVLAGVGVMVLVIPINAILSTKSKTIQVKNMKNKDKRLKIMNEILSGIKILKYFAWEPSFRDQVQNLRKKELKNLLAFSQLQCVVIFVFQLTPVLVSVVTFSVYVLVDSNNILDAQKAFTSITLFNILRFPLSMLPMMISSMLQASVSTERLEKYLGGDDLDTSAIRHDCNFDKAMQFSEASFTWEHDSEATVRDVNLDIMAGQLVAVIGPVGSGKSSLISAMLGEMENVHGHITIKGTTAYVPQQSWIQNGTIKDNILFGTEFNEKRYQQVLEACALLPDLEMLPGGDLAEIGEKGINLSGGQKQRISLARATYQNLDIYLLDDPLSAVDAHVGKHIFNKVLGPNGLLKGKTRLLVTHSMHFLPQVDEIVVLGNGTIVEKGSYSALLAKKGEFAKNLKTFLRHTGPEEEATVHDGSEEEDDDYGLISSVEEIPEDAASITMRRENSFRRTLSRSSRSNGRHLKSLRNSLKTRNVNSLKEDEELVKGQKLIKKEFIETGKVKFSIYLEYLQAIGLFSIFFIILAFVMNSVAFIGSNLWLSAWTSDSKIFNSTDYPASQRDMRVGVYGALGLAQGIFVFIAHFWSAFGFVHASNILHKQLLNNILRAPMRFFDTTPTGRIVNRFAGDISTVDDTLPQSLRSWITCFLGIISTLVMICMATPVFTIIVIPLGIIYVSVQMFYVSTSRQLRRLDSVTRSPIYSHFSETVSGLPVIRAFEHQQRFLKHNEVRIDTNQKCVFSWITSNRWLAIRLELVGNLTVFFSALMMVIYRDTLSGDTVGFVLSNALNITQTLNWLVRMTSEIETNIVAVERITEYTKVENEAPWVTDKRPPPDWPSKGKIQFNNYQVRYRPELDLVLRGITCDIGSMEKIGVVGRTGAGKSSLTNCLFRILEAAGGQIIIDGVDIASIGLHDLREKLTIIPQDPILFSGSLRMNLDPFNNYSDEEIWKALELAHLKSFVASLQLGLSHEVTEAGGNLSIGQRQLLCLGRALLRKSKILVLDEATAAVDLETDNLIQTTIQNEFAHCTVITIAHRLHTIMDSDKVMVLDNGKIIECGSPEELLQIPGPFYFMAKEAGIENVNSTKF
Compound,"Potential for interaction? (transporter inhibitor), MRP2 (MRP2)",In vitro substrate? CYP2C19 (CYP2C19 [1]),In vitro substrate? CYP2B6 (CYP2B6 [2]),"Potential for interaction (perpetrator), CYP2D6 (CYP2D6)","Potential for interaction (perpetrator), CYP2C9 (CYP2C9)","Potential for interaction (perpetrator), CYP2C8 (CYP2C8)","Potential for interaction (perpetrator), CYP2C19 (CYP2C19 [3])","Potential for interaction (perpetrator), CYP1A2 (CYP1A2)","Potential for interaction (perpetrator), CYP2B6 (CYP2B6 [4])","Potential for interaction (perpetrator), CYP3A4 (CYP3A4)",inhibition at 30 µM (MRP2; nominal 30 μM),"Ratio of unbound Cmax to Ki, CYP2C8 (CYP2C8; 600 mg BID)"
"CCOC(=O)[C@@H]1CC2(CCN(c3cc(O[C@H](c4ccc(Cl)cc4-c4ccccc4)C(F)(F)F)nc(N)n3)CC2)CN1 [Rodatristat ethyl, (S)-ethyl 8-(2-amino-6-((R)-1-(5-chloro-[1,1′-biphenyl]-2-yl)-2,2,2-trifluoroethoxy)pyrimidin-4-yl)-2,8-diazaspiro[4.5]decane-3-carboxylate]",No,No,No,No,No,No,No,No,Yes,Yes,,
"Nc1nc(O[C@H](c2ccc(Cl)cc2-c2ccccc2)C(F)(F)F)cc(N2CCC3(CC2)CN[C@H](C(=O)O)C3)n1 [Rodatristat, (S)-8-(2-amino-6-((R)-1-(5-chloro-[1,1′-biphenyl]-2-yl)-2,2,2-trifluoroeth-oxy)pyrimidin-4-yl)-2,8-diazaspiro[4.5]decane-3-carboxylic acid]",No^a,No,No,No,No,No,No,No,Yes,Yes,25%,0.014
